The molecules below were run against T1, cloned human dopamine D3 receptors (Homo sapiens, UniProt P35462) (assay: [N-Methyl-3H]Spiroperidol binding to cloned human dopamine D3 receptors (Protocol 1)). Conditions: Table 2; read-out: D3K1.
T1 construct: expressed in transfected cells; membrane homogenate
Procedure, shortened: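 Radioligand displacement with [N-methyl-3H]spiroperidol used a physiological-salt Tris buffer (0.05 M, pH 7.7; NaCl 120 mM, KCl 5 mM, CaCl2 2 mM, MgCl2 1 mM) and membranes of a high-expressing stable CHO clone carrying human D3. Total ligand concentration came from measured added CPM; 0.1% ascorbic acid was optional for oxidizable compounds.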

T1 sequence (P35462 whole entry): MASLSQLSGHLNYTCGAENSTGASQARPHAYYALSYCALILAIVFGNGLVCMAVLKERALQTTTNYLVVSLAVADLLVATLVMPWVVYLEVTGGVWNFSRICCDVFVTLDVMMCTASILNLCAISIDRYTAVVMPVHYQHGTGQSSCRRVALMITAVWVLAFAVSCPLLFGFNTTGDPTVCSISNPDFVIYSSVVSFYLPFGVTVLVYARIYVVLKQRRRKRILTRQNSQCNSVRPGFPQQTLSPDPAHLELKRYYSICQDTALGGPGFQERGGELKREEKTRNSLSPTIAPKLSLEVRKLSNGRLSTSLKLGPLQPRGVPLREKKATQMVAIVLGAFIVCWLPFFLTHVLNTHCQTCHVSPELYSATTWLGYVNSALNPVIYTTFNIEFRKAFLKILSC

Ki | Structure (SMILES)
3.43 nM | O=C(NCCCCN1CCN(c2csc3cc(C(F)(F)F)ccc23)CC1)c1ccc(-c2ccccc2)cc1 [815547A]

Same assay, conditions: read-out: D3K1

Ki | Structure (SMILES)
4.3 nM | O=C(NCCCCN1CCN(c2csc3cc(C(F)(F)F)ccc23)CC1)c1ccc(Br)cc1 [compound 815551]
7 nM | O=C(NCCCCN1CCN(c2csc3cc(C(F)(F)F)ccc23)CC1)c1ccc(C(F)(F)F)cc1 [compound 815555]
1.7 nM | O=C(NCCCCN1CCN(c2csc3cc(C(F)(F)F)ccc23)CC1)c1ccc2c(c1)OCO2 [compound 815544]
1.6 nM | O=C(NCCCCN1CCN(c2csc3cc(C(F)(F)F)ccc23)CC1)c1ccc(Cl)cc1 [compound 815548]
6.4 nM | O=C(NCCCCN1CCN(c2csc3cc(C(F)(F)F)ccc23)CC1)c1ccco1 [compound 815556]
9.7 nM | COc1ccccc1C(=O)NCCCCN1CCN(c2csc3cc(C(F)(F)F)ccc23)CC1 [compound 815554]
8.7 nM | O=C(NCCCCN1CCN(c2csc3cc(C(F)(F)F)ccc23)CC1)c1c(F)cccc1F [compound 815557]
12 nM | CCOc1ccc(C(=O)NCCCCN2CCN(c3csc4cc(C(F)(F)F)ccc34)CC2)cc1 [compound 815541]
5.6 nM | O=C(NCCCCN1CCN(c2csc3cc(C(F)(F)F)ccc23)CC1)c1ccc(F)cc1F [compound 815542]
49 nM | O=C(NCCCCN1CCN(c2csc3cc(C(F)(F)F)ccc23)CC1)c1sc2ccccc2c1Cl [compound 815546]
38.6 nM | CCCCOc1ccc(C(=O)NCCCCN2CCN(c3csc4cc(C(F)(F)F)ccc34)CC2)cc1 [compound 815545]
1.9 nM | O=C(NCCCCN1CCN(c2csc3cc(C(F)(F)F)ccc23)CC1)c1cc2ccccc2s1 [814238A]

Same assay, conditions: the 13th table, unit inferred; read-out: D3Ki

Ki | Structure (SMILES)
1.07 nM | O=C(NCCCCN1CCCN(c2csc3cc(F)ccc23)CC1)c1cc2ccccc2s1 [822224G]
4.5 nM | O=C(NCCCCN1CCCN(c2csc3cc(F)ccc23)CC1)c1ccc(OC(F)(F)F)cc1 [compound 822152]
10.5 nM | CC(C)(C)c1ccc(C(=O)NCCCCN2CCCN(c3csc4cc(F)ccc34)CC2)cc1 [compound 822198]
0.066 nM | O=C(NCCCCN1CCCN(c2csc3cc(F)ccc23)CC1)c1ccco1 [S981843]
1.4 nM | COc1ccccc1C(=O)NCCCCN1CCCN(c2csc3cc(F)ccc23)CC1 [compound 822157]
5.3 nM | O=C(NCCCCN1CCCN(c2csc3cc(F)ccc23)CC1)c1cccc(F)c1 [compound 822154]
2.45 nM | O=C(NCCCCN1CCCN(c2csc3cc(F)ccc23)CC1)c1ccc2ccccc2c1 [822223G]
